{"source": "paper PMC2630368", "about": "(The Journal of pharmacology and experimental therapeutics, 2008)", "key": {"[1]": {"target": "human ρ2 GABAC receptors (Homo sapiens, UniProt P28476)", "sequence (P28476 21-465)": "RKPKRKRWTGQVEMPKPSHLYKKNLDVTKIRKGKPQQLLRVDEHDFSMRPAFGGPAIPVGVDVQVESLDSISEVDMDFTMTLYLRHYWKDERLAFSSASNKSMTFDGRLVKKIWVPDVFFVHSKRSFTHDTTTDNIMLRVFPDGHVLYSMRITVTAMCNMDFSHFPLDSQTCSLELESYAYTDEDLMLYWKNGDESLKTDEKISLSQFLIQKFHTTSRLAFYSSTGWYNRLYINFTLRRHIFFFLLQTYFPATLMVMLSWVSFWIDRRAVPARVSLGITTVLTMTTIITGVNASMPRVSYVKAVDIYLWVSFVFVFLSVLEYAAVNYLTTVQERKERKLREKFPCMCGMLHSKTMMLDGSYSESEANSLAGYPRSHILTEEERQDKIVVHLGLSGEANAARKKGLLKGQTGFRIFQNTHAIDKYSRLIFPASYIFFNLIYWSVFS", "assay_type": "cell-based"}, "[2]": {"system": "male QS mice", "experiment": "General behavioral and acute toxicity tests in mice", "assay_type": "in vivo", "conditions": "1, 10 and 100 mg/kg ip; 0 min to 1 week after injection"}, "[3]": {"system": "native GABAC receptor on rat retinal bipolar cells", "experiment": "Whole-cell patch-clamp on dissociated rat retinal bipolar cells", "assay_type": "cell-based", "conditions": "GABA 10 μM, bicuculline 100 μM"}, "[4]": {"system": "male Wistar rats", "experiment": "Morris Water Maze learning and memory in rats", "assay_type": "in vivo, rat", "conditions": "for Behavior in pool, D1 / Behavior in pool, D2: grade 0-8; for Number to reach platform, D1 / Number to reach platform, D2: n=10"}, "[5]": {"system": "human α1β2γ2L GABAA receptors", "experiment": "Two-electrode voltage clamp on recombinant GABAA", "assay_type": "cell-based", "conditions": "for Percentage inhibition of GABA response at GABAA(α1β2γ2L): compound 1 mM against an EC50 concentration of GABA (60 μM), n=3; for Response when applied alone (agonist effect) at GABAA(α1β2γ2L): compound 1 mM alone"}, "[6]": {"target": "human ρ1 GABAC receptors (Homo sapiens, UniProt P24046)", "sequence (P24046 22-479)": "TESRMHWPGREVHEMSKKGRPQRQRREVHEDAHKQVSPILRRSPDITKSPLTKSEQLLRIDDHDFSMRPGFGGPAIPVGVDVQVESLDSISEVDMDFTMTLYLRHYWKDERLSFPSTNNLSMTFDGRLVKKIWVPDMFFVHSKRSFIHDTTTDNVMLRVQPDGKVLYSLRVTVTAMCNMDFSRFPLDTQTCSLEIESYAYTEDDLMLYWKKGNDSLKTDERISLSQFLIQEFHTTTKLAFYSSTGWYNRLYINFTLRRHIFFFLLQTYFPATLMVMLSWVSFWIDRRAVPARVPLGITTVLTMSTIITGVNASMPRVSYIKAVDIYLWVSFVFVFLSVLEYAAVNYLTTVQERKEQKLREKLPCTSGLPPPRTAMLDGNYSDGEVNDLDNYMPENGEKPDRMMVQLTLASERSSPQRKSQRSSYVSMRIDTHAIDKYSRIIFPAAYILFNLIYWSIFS", "assay_type": "cell-based", "conditions": "for Mode of antagonism at ρ1 GABAC receptors: GABA dose response curve in presence of 40 μM cis or 30 μM trans; for Effect when applied alone at ρ1 GABAC receptors: applied alone (cis 40 μM, trans 30 μM)"}, "[7]": {"system": "lens induced myopia in chick", "experiment": "Lens induced myopia", "assay_type": "in vivo", "conditions": "for Axial expansion (interocular difference) / Myopia (refractive error, interocular difference): 350 nmol intravitreal daily, −15 D lens, 4.5 days, mean ± SD; for Axial expansion reduction / Myopia reduction: 350 nmol intravitreal, versus water injected control"}, "[8]": {"system": "human GABAB(1b,2) receptors", "experiment": "Two-electrode voltage clamp on recombinant GABAB", "assay_type": "cell-based", "conditions": "for Percentage inhibition of GABA response at GABAB(1b,2): compound 1 mM against an EC50 concentration of GABA (3 μM), GIRK1 and GIRK4, n=3; for Response when applied alone (agonist effect) at GABAB(1b,2): compound 1 mM alone"}, "[9]": {"system": "ρ1 GABAC receptors", "conditions": "ref Chebib et al., 2007, cited from earlier work; for Potency at GABAC relative to GABAA receptors / Potency at GABAC relative to GABAB receptors: ρ1 GABAC"}, "[10]": {"system": "lens induced myopia in chick", "conditions": "negative lens, ref Schmid et al., 2004; cited from earlier work"}, "[11]": {"conditions": "10 mg/kg ip on D1, Trial 1, Day 1"}, "[12]": {"conditions": "10 mg/kg ip on D1, Trial 1, Day 2"}, "[13]": {"conditions": "30 mg/kg ip on D1, Trial 1, Day 1"}, "[14]": {"conditions": "30 mg/kg ip on D1, Trial 1, Day 2"}, "[15]": {"conditions": "100 mg/kg ip on D1, Trial 1, Day 1"}, "[16]": {"conditions": "100 mg/kg ip on D1, Trial 1, Day 2"}, "[17]": {"conditions": "compound 30 μM co-applied with GABA (1 μM)"}}, "note": "Like-named read-outs stand apart in the source and are kept apart here."}
{"molecule": "CCCCP(=O)(O)[C@H]1CC[C@@H](N)C1", "note": "(relative stereo) [cis-3-ACPBPA, cis-(3-aminocyclopentanyl)butylphosphinic acid]", "values": [{"measurement": "IC50", "setting": "[1]; read-out: GABAC ρ2 IC50, GABA 1 μM, n=4", "value": 11.1, "unit": "µM"}, {"measurement": "Overt acute toxicity", "setting": "[2]", "value": "No overt acute toxicity"}, {"measurement": "Hill coefficient", "setting": "[3]", "value": 0.97}, {"measurement": "IC50", "setting": "[3]; read-out: IC50 at native GABAC receptor, n=6", "value": "47 ± 4.5", "unit": "µM"}, {"measurement": "Median time to reach platform, D1", "setting": "[4]; [11]", "value": 59, "unit": "s"}, {"measurement": "Behavior in pool, D1", "setting": "[4]; [11]", "value": 3}, {"measurement": "Number to reach platform, D1", "setting": "[4]; [11]", "value": 5}, {"measurement": "Median time to reach platform, D2", "setting": "[4]; [12]", "value": 71, "unit": "s"}, {"measurement": "Behavior in pool, D2", "setting": "[4]; [12]", "value": 4}, {"measurement": "Number to reach platform, D2", "setting": "[4]; [12]", "value": 8}, {"measurement": "Median time to reach platform, D1", "setting": "[4]; [13]", "value": 31, "unit": "s"}, {"measurement": "Behavior in pool, D1", "setting": "[4]; [13]", "value": "4 ^*, 4"}, {"measurement": "Number to reach platform, D1", "setting": "[4]; [13]", "value": 7}, {"measurement": "Median time to reach platform, D2", "setting": "[4]; [14]", "value": 35, "unit": "s"}, {"measurement": "Behavior in pool, D2", "setting": "[4]; [14]", "value": "4 ^*, 4"}, {"measurement": "Number to reach platform, D2", "setting": "[4]; [14]", "value": 9}, {"measurement": "Median time to reach platform, D1", "setting": "[4]; [15]", "value": 85, "unit": "s"}, {"measurement": "Behavior in pool, D1", "setting": "[4]; [15]", "value": 3}, {"measurement": "Number to reach platform, D1", "setting": "[4]; [15]", "value": 5}, {"measurement": "Median time to reach platform, D2", "setting": "[4]; [16]", "value": 71, "unit": "s"}, {"measurement": "Behavior in pool, D2", "setting": "[4]; [16]", "value": 4}, {"measurement": "Number to reach platform, D2", "setting": "[4]; [16]", "value": 6}, {"measurement": "Percentage inhibition of GABA response at GABAA(α1β2γ2L)", "setting": "[5]", "value": "33±3", "unit": "%"}, {"measurement": "Response when applied alone (agonist effect) at GABAA(α1β2γ2L)", "setting": "[5]", "value": "no response alone"}, {"measurement": "Mode of antagonism at ρ1 GABAC receptors", "setting": "[6]", "value": "competitive antagonists"}, {"measurement": "Potency at GABAC relative to GABAA or GABAB receptors", "setting": "[6]; GABAC versus GABAA or GABAB", "value": "over 100 times"}, {"measurement": "Effect when applied alone at ρ1 GABAC receptors", "setting": "[6]", "value": "no effect alone"}, {"measurement": "Inhibition of the GABA response at ρ1 GABAC receptors", "setting": "[6]; compound 40 μM co-applied with GABA (1 μM)", "value": "completely inhibited"}, {"measurement": "IC50", "setting": "[6]; read-out: GABAC ρ1 IC50, GABA 1 μM, n=4", "value": 5.06, "unit": "µM"}, {"measurement": "Potency relative to the trans analog at the ρ1 and ρ2 GABAC receptors", "setting": "[6]; ρ1 and ρ2 GABAC receptors", "value": "approximately 15 times"}, {"measurement": "Axial expansion (interocular difference)", "setting": "[7]", "value": "0.17±0.17", "unit": "mm"}, {"measurement": "Myopia (refractive error, interocular difference)", "setting": "[7]", "value": "−2.3±2.6", "unit": "D"}, {"measurement": "Axial expansion reduction", "setting": "[7]", "value": 70, "unit": "%"}, {"measurement": "Myopia reduction", "setting": "[7]", "value": 80, "unit": "%"}, {"measurement": "Dose required to inhibit a similar degree of lens-induced myopia (>80%)", "setting": "[7]; intravitreal, chick", "value": 35, "unit": "nmol"}, {"measurement": "Percentage inhibition of GABA response at GABAB(1b,2)", "setting": "[8]", "value": "27±3", "unit": "%"}, {"measurement": "Response when applied alone (agonist effect) at GABAB(1b,2)", "setting": "[8]", "value": "No response"}]}
{"molecule": "CP(=O)(O)[C@H]1CC[C@@H](N)C1", "note": "(relative stereo) [cis-3-ACPMPA, cis-(3-aminocyclopentanyl)methylphosphinic acid]", "values": [{"measurement": "Mode of antagonism at GABAC receptors", "setting": "[9]", "value": "competitive antagonists"}, {"measurement": "Potency at GABAC relative to GABAA receptors", "setting": "[9]", "value": "greater than 100 times"}, {"measurement": "Potency at GABAC relative to GABAB receptors", "setting": "[9]", "value": 50, "unit": "times"}]}
{"molecule": "CCCCP(=O)(O)CCCN", "note": "[CGP36742, (3-aminopropyl)-n-butylphosphinic acid]", "values": [{"measurement": "Dose inhibiting a similar degree of lens-induced myopia", "setting": "[10]", "value": 280, "unit": "nmol"}]}
{"molecule": "CP(=O)(O)C1=CCNCC1", "note": "[TPMPA, (1,2,5,6-tetrahydropyridin-4-yl)methylphosphinic acid, reference compound]", "values": [{"measurement": "Inhibition of the GABA response at ρ1 GABAC receptors", "setting": "[6]; [17]", "value": "completely inhibited"}, {"measurement": "Dose inhibiting a similar degree of lens-induced myopia", "setting": "[10]", "value": 70, "unit": "nmol"}]}
{"molecule": "CN1[C@@H]2C[C@@H](OC(=O)[C@H](CO)c3ccccc3)C[C@H]1[C@@H]1O[C@@H]12", "note": "[scopolamine, reference compound]", "values": [{"measurement": "Time taken to find the platform", "setting": "[4]; 1 mg/kg ip, D1, versus vehicle", "value": "statistically significant increase"}, {"measurement": "Behavior score", "setting": "[4]; 1 mg/kg ip, Trials 3 and 4 of D1, vehicle 6", "value": 3}]}
{"molecule": "CCCCP(=O)(O)C1CCC(N)C1", "note": "(stereo not drawn) [trans-3-ACPBPA, trans-(3-aminocyclopentanyl)butylphosphinic acid]", "values": [{"measurement": "IC50", "setting": "[1]", "value": 190, "unit": "µM"}, {"measurement": "Overt acute toxicity", "setting": "[2]", "value": "No overt acute toxicity"}, {"measurement": "Median time to reach platform, D1", "setting": "[4]; [11]", "value": 77, "unit": "s"}, {"measurement": "Behavior in pool, D1", "setting": "[4]; [11]", "value": 3}, {"measurement": "Number to reach platform, D1", "setting": "[4]; [11]", "value": 5}, {"measurement": "Median time to reach platform, D2", "setting": "[4]; [12]", "value": 44, "unit": "s"}, {"measurement": "Behavior in pool, D2", "setting": "[4]; [12]", "value": 4}, {"measurement": "Number to reach platform, D2", "setting": "[4]; [12]", "value": 8}, {"measurement": "Median time to reach platform, D1", "setting": "[4]; [13]", "value": 82, "unit": "s"}, {"measurement": "Behavior in pool, D1", "setting": "[4]; [13]", "value": 3}, {"measurement": "Number to reach platform, D1", "setting": "[4]; [13]", "value": 5}, {"measurement": "Median time to reach platform, D2", "setting": "[4]; [14]", "value": 47, "unit": "s"}, {"measurement": "Behavior in pool, D2", "setting": "[4]; [14]", "value": 5}, {"measurement": "Number to reach platform, D2", "setting": "[4]; [14]", "value": 8}, {"measurement": "Median time to reach platform, D1", "setting": "[4]; [15]", "value": 61, "unit": "s"}, {"measurement": "Behavior in pool, D1", "setting": "[4]; [15]", "value": 4}, {"measurement": "Number to reach platform, D1", "setting": "[4]; [15]", "value": 6}, {"measurement": "Median time to reach platform, D2", "setting": "[4]; [16]", "value": 28, "unit": "s"}, {"measurement": "Behavior in pool, D2", "setting": "[4]; [16]", "value": 6}, {"measurement": "Number to reach platform, D2", "setting": "[4]; [16]", "value": 9}, {"measurement": "Percentage inhibition of GABA response at GABAA(α1β2γ2L)", "setting": "[5]", "value": "28±5", "unit": "%"}, {"measurement": "Response when applied alone (agonist effect) at GABAA(α1β2γ2L)", "setting": "[5]", "value": "no response alone"}, {"measurement": "IC50", "setting": "[6]", "value": 72.6, "unit": "µM"}, {"measurement": "Mode of antagonism at ρ1 GABAC receptors", "setting": "[6]", "value": "competitive antagonists"}, {"measurement": "Effect when applied alone at ρ1 GABAC receptors", "setting": "[6]", "value": "no effect alone"}, {"measurement": "Inhibition of the GABA response at ρ1 GABAC receptors", "setting": "[6]; [17]", "value": 70, "unit": "%"}, {"measurement": "Axial expansion (interocular difference)", "setting": "[7]", "value": "0.15±0.15", "unit": "mm"}, {"measurement": "Myopia (refractive error, interocular difference)", "setting": "[7]", "value": "−3.1±2.8", "unit": "D"}, {"measurement": "Axial expansion reduction", "setting": "[7]", "value": 74, "unit": "%"}, {"measurement": "Myopia reduction", "setting": "[7]", "value": 74, "unit": "%"}, {"measurement": "Percentage inhibition of GABA response at GABAB(1b,2)", "setting": "[8]", "value": "35±5", "unit": "%"}, {"measurement": "Response when applied alone (agonist effect) at GABAB(1b,2)", "setting": "[8]", "value": "No response"}]}
{"molecule": "trans-(3-aminocyclopentanyl)methylphosphinic acid [trans-3-ACPMPA]", "values": [{"measurement": "Mode of antagonism at GABAC receptors", "setting": "[9]", "value": "competitive antagonists"}, {"measurement": "Potency at GABAC relative to GABAA receptors", "setting": "[9]", "value": "greater than 100 times"}, {"measurement": "Potency at GABAC relative to GABAB receptors", "setting": "[9]", "value": 50, "unit": "times"}]}
